Reference: paper PMC12223813, “Antiproliferative and Trypanocidal Activity of Ivermectin Bioconjugates” (ACS Omega, 2025)

What was measured:
[1] = tested on: human promyelocytic leukemia HL-60 cells; assay: Cytotoxic activity, resazurin cell viability assay; assay type: cell-based; conditions: 72 h total (24 h + 48 h with resazurin), mean ± SD of three independent experiments
Method: (§1) The trypanocidal and cytotoxic activities of the newly synthesized IVR bioconjugates and their conjugation partners were determined for bloodstream forms of T. brucei brucei and human myeloid HL-60 cells in vitro using the resazurin cell viability assay as previously described.
(§2) Test compounds were assayed at 10-fold dilutions ranging from 100 μM to 1 nM in the presence of 0.9% DMSO. Controls were grown in the culture medium containing only 0.9% DMSO. The assays were cultured in an incubator at 37 °C in a humidified atmosphere containing 5% CO2. After 24 h incubation, 20 μL of 0.5 mM resazurin (prepared in sterile PBS) was added, and the cultures were grown for another 48 h. Then, the proliferation of the cells was determined by measuring the absorbance at 570 nm (test wavelength) and 630 nm (reference wavelength) using a microplate reader.

[2] = tested on: HaCaT, human immortalized keratinocyte cell line; assay: Cytotoxicity toward normal cells, MTT assay; assay type: cell-based; conditions: 72 h, mean ± SD
Method: (§3) Additionally, to assess the selectivity of these compounds toward cancer cells, we included an immortalized keratinocyte cell line from adult human skin (HaCaT) in the antiproliferative activity tests. Doxorubicin served as the reference anticancer drug.
(§4) The culture media were enriched with 10% fetal bovine serum (FBS, Sigma-Aldrich, St. Louis, MO, USA), 20 mM HEPES (Biowest, Nuaillé, France), and antibiotics (100 U/mL penicillin and 100 μg/mL streptomycin) obtained from Gibco (Grand Island, NY, USA). The cells were maintained in a humidified incubator at 37 °C with 5% CO2 until they reached 80–90% confluence, after which they were used for further experiments.
(§5) To assess the cytotoxicity, the cells (0.5 × 10^4/well) were plated in 96-well plates and allowed to adhere for 24 h. The MTT (3-(4,5-dimethylthiazol-2-yl)-2,5-diphenyltetrazolium bromide) assay was used to evaluate the cytotoxic effects of IVR bioconjugates on all tested cell lines. After 24 h incubation, cells were exposed to varying concentrations (1 to 100 μM) of the test compounds for 72 h. Following the treatment, the medium was discarded, and a 0.5 mg mL^–1 MTT solution was added to each well and incubation was continued for another 4 h. Mitochondrial enzyme activity facilitated the formation of formazan crystals, which were subsequently dissolved in DMSO-isopropanol (1:1, v/v), producing a violet-colored solution. A 100 μL aliquot of this solution was transferred to the well, and absorbance was recorded at 570 nm using a MultiscanGo spectrophotometer (ThermoFisher Scientific, Carlsbad, CA, USA).
(§6) Cytotoxicity was quantified by comparing the absorbance of the treated cells to that of untreated controls using the formula: [A]/[B] × 100, where [A] represents the absorbance of the treated sample and [B] corresponds to the absorbance of the control sample. A decrease in MTT levels reflects a decrease in cell viability.

[3] = tested on: PC3, human metastatic prostate cancer cell line; assay: Antiproliferative activity, MTT assay; assay type: cell-based; conditions: for IC50: Homo sapiens, 72 h, MTT, mean ± SD; for PC3 SI: SI = IC50 HaCaT/IC50 PC3
Method: as §3, §4, §5, §6

[4] = tested on: A549, human lung cancer cell line; assay: Antiproliferative activity, MTT assay; assay type: cell-based; conditions: for IC50: Homo sapiens, A549, 72 h, MTT, mean ± SD; for A549 SI: SI = IC50 HaCaT/IC50 A549
Method: as §3, §4, §5, §6

[5] = tested on: HCT-116, human primary colon cancer cell line; assay: Antiproliferative activity, MTT assay; assay type: cell-based; conditions: for IC50: Homo sapiens, HCT-116, 72 h, MTT, mean ± SD; for HCT-116 SI: SI = IC50 HaCaT/IC50 HCT-116
Method: as §3, §4, §5, §6

[6] = tested on: MDA-MB-231, human triple-negative breast cancer cell line; assay: Antiproliferative activity, MTT assay; assay type: cell-based; conditions: for IC50: Homo sapiens, MDA-MB-231, 72 h, MTT, mean ± SD; for MDA-MB-231 SI: SI = IC50 HaCaT/IC50 MDA-MB-231
Method: as §3, §4, §5, §6

[7] = tested on: bloodstream forms of T. b. brucei (427-221a clone); assay: microbe, parasite or virus in culture; conditions: for selectivity GI50 ratio: GI50(HL-60)/GI50(T. brucei); for GI50: Trypanosoma brucei, 72 h, read-out: T. brucei GI50, bloodstream forms, 72 h total (24 h + 48 h with resazurin), mean ± SD of three independent experiments
Method: as §1, §2

in vitro = conditions: human
Method: as §1, §2

Structure (SMILES)	GI50 [1] [µM]	IC50 [2] [µM]	IC50 [3] [µM]	PC3 SI [3]	IC50 [4] [µM]	A549 SI [4]	IC50 [5] [µM]	HCT-116 SI [5]	IC50 [6] [µM]	MDA-MB-231 SI [6]	selectivity GI50 ratio [7]	antitrypanosomal activity, times stronger than IVR ([7]; relative to IVR GI50) [times]	antitrypanosomal activity, times stronger than artesunate ([7]; relative to artesunate GI50) [times]	selectivity ratio (in vitro)	GI50 [7] [µM]
CCC(C)C1OC2(CCC1C)CC1CC(CC=C(C)C(OC(=O)Cn3cc(COC(=O)CCC(=O)OC4OC5OC6(C)CCC7C(C)CCC(C4C)C57OO6)nn3)C(C)C=CC=C3COC4C(O)C(C)=CC(C(=O)O1)C34O)O2 (stereo not drawn) [compound 16, Ivermectin–Artesunate Conjugate]	18 ± 6	> 100	20.8 ± 7.2	>4.8	3.8 ± 1.3	>26.3	4.5 ± 0.6	>22.2	13 ± 4.1	>7.7	46.2	7	9	> 256	
Cc1ncc([N+](=O)[O-])n1CCO [metronidazole, reference compound]	> 100	> 100	57 ± 6.1	>1.8	> 100	∼1.0	> 100	∼1.0	14.9 ± 3.9	>6.7	∼1.0				
C=C[C@H]1C[N@@]2CC[C@H]1C[C@@H]2[C@@H](O)c1ccnc2ccc(OC)cc12 [quinidine, reference compound]	> 100	> 100	86.1 ± 1.2		55.8 ± 5.3		67.4 ± 8.9		76.2 ± 4.6						0.32 ± 0.04
C=C[C@H]1C[N@@]2CC[C@H]1C[C@H]2[C@H](O)c1ccnc2ccc(OC)cc12 [quinine, reference compound]	> 100	> 100	56.3 ± 7.2		56.4 ± 3.2		32.8 ± 3.8		54.4 ± 7						1.1 ± 0.3
